Measured values as given in patent publication US10597375B2, “Halogen-substituted heterocyclic compound” (UBE INDUSTRIES, LTD., priority 2012, dated 2020).

System: A2058 human melanoma cells
Assay: Cell migration test (LPA-induced, Chemo-Tx)
Format: cell-based
Conditions: LPA 100 nM, 3 hours, read-out: IC50: concentration of the test compound which inhibits the cell migration activity of LPA by 50%
Experimental: The cell migration test was carried out using Chemo-Tx (registered trademark) (116-8, Neuro Probe). A2058 human melanoma cells (obtained from European Collection of Cell Culture) were cultured in a serum-free EMEM medium for 24 hours, and then re-suspended in a 0.1% BSA-containing DMEM medium to obtain a cell suspension. The test compound dissolved in DMSO in various concentration was each added to the cell suspension, and the suspension was cultured at 37° C. for 15 minutes (the final DMSO concentration of 0.5%). LPA dissolved in a 0.1% BSA-containing DMEM medium (the final concentration of 100 nM) was added to Chemo-Tx 96 well plate, and a Chemo-Tx filter which had been coated with 0.001% Fibronectin on the both surfaces was put on the plate. The suspension of cultured cells (25,000 cells) was added onto the upper surface of the filter and further cultured at 37° C. for 3 hours, and the cells on the upper surface of the filter were removed. After the filter was removed and dried, the cells which had migrated to the lower surface of the filter were stained using Diff-Quik stain (16920, Sysmex). The absorbance of the filter (570 nm) was measured and the concentration of the test compound which inhibits the cell migration activity of LPA by 50%, (1050) was determined by non-linear regression analysis using EXSAS (version 7.6.0, Arm Systex).

IC50 [nM] | SMILES
≤ 200 | COc1cc(-c2sc(F)cc2NC(=O)OC(C)c2cc(F)ccc2C)ccc1-c1ccc(C2(C(=O)O)CC2)cc1 (racemic) [I-481, (RS)-1-{4′-[5-Fluoro-3-({[1-(5-fluoro-2-methylphenyl)ethoxy]carbonyl}amino)thiophen-2-yl]-2′-methoxy-[1,1′-biphenyl]-4-yl}cyclopropanecarboxylic acid]
≤ 200 | Cc1cscc1C(C)OC(=O)Nc1cc(Cl)sc1-c1ccc(-c2ccc(C3(C(=O)O)CC3)cc2)cc1 (racemic) [I-605, (RS)-1-{4′-[5-Chloro-3-({[1-(4-methylthiophen-3-yl)ethoxy]carbonyl}amino)thiophen-2-yl]-[1,1′-biphenyl]-4-yl}cyclopropanecarboxylic acid]
≤ 200 | COc1cc(-c2sc(Cl)cc2NC(=O)OC(C)c2ccsc2)ccc1-c1ccc(C2(C(=O)O)CC2)cc1 (racemic) [I-779, (RS)-1-{4′-[5-Chloro-3-({[1-(thiophen-3-yl)ethoxy]carbonyl}amino)thiophen-2-yl]-2′-methoxy-[1,1′-biphenyl]-4-yl}cyclopropanecarboxylic acid]
≤ 200 | COc1cc(-c2sc(Cl)cc2NC(=O)OC(C)c2cscc2C)ccc1-c1ccc(C2(C(=O)O)CC2)cc1 (racemic) [I-783, (RS)-1-{4′-[5-Chloro-3-({[1-(4-methylthiophen-3-yl)ethoxy]carbonyl}amino)thiophen-2-yl]-2′-methoxy-[1,1′-biphenyl]-4-yl}cyclopropanecarboxylic acid]
≤ 200 | COc1cc(-c2sc(Cl)cc2NC(=O)OC(C)c2cscc2Cl)ccc1-c1ccc(C2(C(=O)O)CC2)cc1 (racemic) [I-791, (RS)-1-{4′-[5-Chloro-3-({[1-(4-chlorothiophen-3-yl)ethoxy]carbonyl}amino)thiophen-2-yl]-2′-methoxy-[1,1′-biphenyl]-4-yl}cyclopropanecarboxylic acid]
≤ 200 | COc1cc(-c2sc(F)cc2NC(=O)OC(C)c2cscc2C)ccc1-c1ccc(C2(C(=O)O)CC2)cc1 (racemic) [I-815, (RS)-1-{4′-[5-Fluoro-3-({[1-(4-methylthiophen-3-yl)ethoxy]carbonyl}amino)thiophen-2-yl]-2′-methoxy-[1,1′-biphenyl]-4-yl}cyclopropanecarboxylic acid]
≤ 200 | COc1cc(-c2sc(F)cc2NC(=O)OC(C)c2cscc2Cl)ccc1-c1ccc(C2(C(=O)O)CC2)cc1 (racemic) [I-823, (RS)-1-{4′-[3-({[1-(4-Chlorothiophen-3-yl)ethoxy]carbonyl}amino)-5-fluorothiophen-2-yl]-2′-methoxy-[1,1′-biphenyl]-4-yl}cyclopropanecarboxylic acid]
≤ 200 | COc1cc(-c2sc(Cl)cc2NC(=O)O[C@H](C)c2ccc(F)cc2Cl)ccc1-c1ccc(C2(C(=O)O)CC2)cc1 [I-396, (R)-1-{4′-[5-Chloro-3-({[1-(2-chloro-4-fluorophenyl)ethoxy]carbonyl}amino)thiophen-2-yl]-2′-methoxy-[1,1′-biphenyl]-4-yl}cyclopropanecarboxylic acid]
≤ 200 | COc1cc(-c2sc(Cl)cc2NC(=O)O[C@H](C)c2cccs2)ccc1-c1ccc(C2(C(=O)O)CC2)cc1 [I-808, (R)-1-{4′-[5-Chloro-3-({[1-(thiophen-2-yl)ethoxy]carbonyl}amino)thiophen-2-yl]-2′-methoxy-[1,1′-biphenyl]-4-yl}cyclopropanecarboxylic acid]

Further lines, the molecule ahead of its results:

SMILES | IC50 [nM]
CC(OC(=O)Nc1cc(F)sc1-c1ccc(-c2ccc(C3(C(=O)O)CC3)cc2)cc1)c1cc(F)c(F)cc1F (racemic) [I-171, (RS)-1-{4′-[5-Fluoro-3-({[1-(2,4,5-trifluorophenyl)ethoxy]carbonyl}amino)thiophen-2-yl]-[1,1′-biphenyl]-4-yl}cyclopropanecarboxylic acid] | ≤ 200
COc1cc(-c2sc(F)cc2NC(=O)OC(C)c2cc(F)ccc2Cl)ccc1-c1ccc(C2(C(=O)O)CC2)cc1 (racemic) [I-469, (RS)-1-{4′-[3-({[1-(2-Chloro-5-fluorophenyl)ethoxy]carbonyl}amino)-5-fluorothiophen-2-yl]-2′-methoxy-[1,1′-biphenyl]-4-yl}cyclopropanecarboxylic acid] | ≤ 200
COc1cc(-c2sc(F)cc2NC(=O)OC(C)c2ccc(F)cc2C)ccc1-c1ccc(C2(C(=O)O)CC2)cc1 (racemic) [I-477, (RS)-1-{4′-[5-Fluoro-3-({[1-(4-fluoro-2-methylphenyl)ethoxy]carbonyl}amino)thiophen-2-yl]-2′-methoxy-[1,1′-biphenyl]-4-yl}cyclopropanecarboxylic acid] | ≤ 200
CC(OC(=O)Nc1cc(Cl)sc1-c1ccc(-c2ccc(C3(C(=O)O)CC3)cc2)cc1)c1ccsc1 (racemic) [I-595, (RS)-1-{4′-[5-Chloro-3-({[1-(thiophen-3-yl)ethoxy]carbonyl}amino)thiophen-2-yl]-[1,1′-biphenyl]-4-yl}cyclopropanecarboxylic acid] | ≤ 200
CC(OC(=O)Nc1cc(Cl)sc1-c1ccc(-c2ccc(C3(C(=O)O)CC3)cc2)cc1)c1ccsn1 (racemic) [I-621] | ≤ 200
CC(OC(=O)Nc1cc(Cl)sc1-c1ccc(-c2ccc(C3(C(=O)O)CC3)cc2)cc1)c1cnsc1 (racemic) [I-625, (RS)-1-{4′-[5-Chloro-3-({[1-(isothiazol-4-yl)ethoxy]carbonyl}amino)thiophen-2-yl]-[1,1′-biphenyl]-4-yl}cyclopropanecarboxylic acid] | ≤ 200
C[C@@H](OC(=O)Nc1cc(Cl)sc1-c1ccc(-c2ccc(C3(C(=O)O)CC3)cc2)cc1)c1ccc(F)c(F)c1 [I-72, (R)-1-{4′-[5-Chloro-3-({[1-(3,4-difluorophenyl)ethoxy]carbonyl}amino)thiophen-2-yl]-[1,1′-biphenyl]-4-yl}cyclopropanecarboxylic acid] | ≤ 200
C[C@@H](OC(=O)Nc1cc(F)sc1-c1ccc(-c2ccc(C3(C(=O)O)CC3)cc2)cc1)c1ccc(F)c(F)c1 [I-148, (R)-1-{4′-[3-({[1-(3,4-Difluorophenyl)ethoxy]carbonyl}amino)-5-fluorothiophen-2-yl]-[1,1′-biphenyl]-4-yl}cyclopropanecarboxylic acid] | ≤ 200
COc1cc(-c2sc(F)cc2NC(=O)O[C@H](C)c2ccc(Cl)cc2)ccc1-c1ccc(C2(C(=O)O)CC2)cc1 [I-446, (R)-1-{4′-[3-({[1-(4-Chlorophenyl)ethoxy]carbonyl}amino)-5-fluorothiophen-2-yl]-2′-methoxy-[1,1′-biphenyl]-4-yl}cyclopropanecarboxylic acid] | ≤ 200
COc1cc(-c2sc(F)cc2NC(=O)O[C@H](C)c2ccc(F)cc2F)ccc1-c1ccc(C2(C(=O)O)CC2)cc1 [I-454, (R)-1-{4′-[3-({[1-(2,4-Difluorophenyl)ethoxy]carbonyl}amino)-5-fluorothiophen-2-yl]-2′-methoxy-[1,1′-biphenyl]-4-yl}cyclopropanecarboxylic acid] | ≤ 200
COc1cc(-c2sc(F)cc2NC(=O)O[C@H](C)c2ccc(F)cc2Cl)ccc1-c1ccc(C2(C(=O)O)CC2)cc1 [I-466, (R)-1-{4′-[3-({[1-(2-Chloro-4-fluorophenyl)ethoxy]carbonyl}amino)-5-fluorothiophen-2-yl]-2′-methoxy-[1,1′-biphenyl]-4-yl}cyclopropanecarboxylic acid] | ≤ 200
C[C@@H](OC(=O)Nc1cc(Cl)sc1-c1ccc(-c2ccc(C3(C(=O)O)CC3)cc2)c([N+](=O)[O-])c1)c1ccccc1 [I-490, (R)-1-[4′-(5-Chloro-3-{[(1-phenylethoxy)carbonyl]amino}thiophen-2-yl)-2′-nitro-[1,1′-biphenyl]-4-yl]cyclopropanecarboxylic acid] | ≤ 200
C[C@@H](OC(=O)Nc1cc(Cl)sc1-c1ccc(-c2ccc(C3(C(=O)O)CC3)cc2)c([N+](=O)[O-])c1)c1ccc(F)cc1 [I-498, (R)-1-{4′-[5-Chloro-3-({[1-(4-fluorophenyl)ethoxy]carbonyl}amino)thiophen-2-yl]-2′-nitro-[1,1′-biphenyl]-4-yl}cyclopropanecarboxylic acid] | ≤ 200
C[C@@H](OC(=O)Nc1cc(Cl)sc1-c1ccc(-c2ccc(C3(C(=O)O)CC3)cc2)c([N+](=O)[O-])c1)c1ccccc1Cl [I-502, (R)-1-{4′-[5-Chloro-3-({[1-(2-chlorophenyl)ethoxy]carbonyl}amino)thiophen-2-yl]-2′-nitro-[1,1′-biphenyl]-4-yl}cyclopropanecarboxylic acid] | ≤ 200
C[C@@H](OC(=O)Nc1cc(Cl)sc1-c1ccc(-c2ccc(C3(C(=O)O)CC3)cc2)c(N)c1)c1ccccc1 [I-534] | ≤ 200
C[C@@H](OC(=O)Nc1cc(Cl)sc1-c1ccc(-c2ccc(C3(C(=O)O)CC3)cc2)cc1)c1cccs1 [I-630, (R)-1-{4′-[5-Chloro-3-({[1-(thiophen-2-yl)ethoxy]carbonyl}amino)thiophen-2-yl]-[1,1′-biphenyl]-4-yl}cyclopropanecarboxylic acid] | ≤ 200
C[C@@H](OC(=O)Nc1cc(F)sc1-c1ccc(-c2ccc(C3(C(=O)O)CC3)cc2)cc1)c1cccs1 [I-674, (R)-1-{4′-[5-Fluoro-3-({[1-(thiophen-2-yl)ethoxy]carbonyl}amino)thiophen-2-yl]-[1,1′-biphenyl]-4-yl}cyclopropanecarboxylic acid] | ≤ 200
